Source: patent US8952024B2, “Herbicidal pyrimidone derivatives” (E I du Pont de Nemours and Company, priority 2009, dated 2015)

Assays:
Format in all cases: in vivo
[1] = tested on: umbrella sedge (Cyperus difformis); test: Test B flooded paddy test; settings: for Plant response rating, Sedge, Umbrella: Flood (flooded paddy test), 13 to 15 days
How it was run: (§1)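 Each compound is added to standing floodwater (3 cm above soil, maintained) in pots of 2-leaf-stage plants; greenhouse exposure lasts 13–15 d before visual comparison with controls on a 0–100 control scale.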

[2] = tested on: barnyardgrass (Echinochloa crus-galli); test: Test B flooded paddy test; settings: for Plant response rating, Barnyardgrass: Flood (flooded paddy test), 13 to 15 days
How it was run: as §1

[3] = tested on: ducksalad (Heteranthera limosa); test: Test B flooded paddy test; settings: for Plant response rating, Ducksalad: Flood (flooded paddy test), 13 to 15 days
How it was run: as §1

rice (Oryza sativa) = test: Test B flooded paddy test; settings: for Plant response rating, Rice: Flood (flooded paddy test), 13 to 15 days
How it was run: as §1

wild oat (Avena fatua) = test: Test B pre-/postemergence plant response
How it was run: (§2)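 Compound in solvent + surfactant applied pre-em (loam/sand) or post-em (plants 2–18 cm, peat medium); greenhouse hold 13–15 days; visual 0–100 control score.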

[4] = tested on: bermudagrass (Cynodon dactylon); test: Test B pre-/postemergence plant response
How it was run: as §2

[5] = tested on: green foxtail (Setaria viridis); test: Test B pre-/postemergence plant response
How it was run: as §2

[6] = tested on: lambsquarters (Chenopodium album); test: Test B pre-/postemergence plant response
How it was run: as §2

[7] = tested on: ragweed (common ragweed, Ambrosia elatior); test: Test B pre-/postemergence plant response
How it was run: as §2

soybean (Glycine max) = test: Test B pre-/postemergence plant response
How it was run: as §2

[8] = tested on: pigweed (Amaranthus retroflexus); test: Test B pre-/postemergence plant response
How it was run: as §2

[9] = tested on: giant foxtail (Setaria faberii); test: Test B pre-/postemergence plant response
How it was run: as §2

corn (Zea mays) = test: Test B pre-/postemergence plant response
How it was run: as §2

[10] = tested on: johnsongrass (Sorghum halepense); test: Test B pre-/postemergence plant response
How it was run: as §2

kochia (Kochia scoparia) = test: Test B pre-/postemergence plant response
How it was run: as §2

[11] = tested on: cocklebur (Xanthium strumarium); test: Test B pre-/postemergence plant response
How it was run: as §2

[12] = 250 g ai/ha, flooded paddy test, visual rating on 0 to 100 scale (0 no effect, 100 complete control) after 13 to 15 days
[13] = 31 g ai/ha, scale of 0 to 100 where 0 is no effect and 100 is complete control
[14] = 62 g ai/ha, scale of 0 to 100 where 0 is no effect and 100 is complete control
[15] = 125 g ai/ha, scale 0 to 100, 0 is no effect, 100 is complete control
[16] = 31 g ai/ha, postemergence, scale 0 to 100, 0 is no effect, 100 is complete control
[17] = 250 g ai/ha, Preemergence, 0 to 100 scale
[18] = Postemergence, 62 g ai/ha, scale 0 (no effect) to 100 (complete control), 13 to 15 days
[19] = Postemergence, 125 g ai/ha, visual rating after 13 to 15 days, scale 0 (no effect) to 100 (complete control)
[20] = Postemergence, 250 g ai/ha, scale 0 to 100 (0 no effect, 100 complete control)
[21] = Preemergence, 31 g ai/ha, scale 0 to 100 (0 no effect, 100 complete control)
[22] = Preemergence, 125 g ai/ha, 0 to 100 scale
[23] = Preemergence, 62 g ai/ha, scale 0 to 100, 0 no effect, 100 complete control

Cc1ccc(F)c(-n2c(-c3ccccc3)ncc(C(=O)C3=C(O)CCCC3=O)c2=O)c1 [Compound 51]
5: Plant response rating, Johnsongrass [10, 23]
95: Plant response rating, Flood, Ducksalad [3, 12] | Plant response rating, Bermudagrass [4, 21] | Plant response rating, Foxtail, Green [5, 18] | Plant response rating, Foxtail, Green [5, 19] | Plant response rating, Lambsquarters [6, 19] | Plant response rating, Lambsquarters [6, 21] | Plant response rating, Ragweed [7, 20] | Plant response rating, Soybean (soybean (Glycine max); [19]) | Plant response rating, Soybean (soybean (Glycine max); [20]) | Plant response rating, Pigweed [8, 18]
20: Plant response rating, Barnyardgrass [2, 14] | Plant response rating, Kochia (kochia (Kochia scoparia); [16]) | Plant response rating, Kochia (kochia (Kochia scoparia); [18]) | Cocklebur plant response rating [11, 22]
55: Plant response rating, Flood, Barnyardgrass [2, 12]
85: Plant response rating, Sedge, Umbrella [1, 15] | Plant response rating, Ducksalad [3, 15] | Plant response rating, Foxtail, Green [5, 16] | Plant response rating, Soybean (soybean (Glycine max); [16]) | Plant response rating, Soybean (soybean (Glycine max); [17]) | Plant response rating, Pigweed [8, 16] | Plant response rating, Foxtail, Giant [9, 19] | Plant response rating, Foxtail, Giant [9, 20] | Plant response rating, Corn (corn (Zea mays); [20]) | Plant response rating, Johnsongrass [10, 19] | Plant response rating, Cocklebur [11, 16] | Plant response rating, Cocklebur [11, 18]
65: Plant response rating, Ragweed [7, 21]
90: Plant response rating, Flood, Sedge, Umbrella [1, 12] | Plant response rating, Oat, Wild (wild oat (Avena fatua); [20]) | Plant response rating, Bermudagrass [4, 18] | Plant response rating, Bermudagrass [4, 19] | Plant response rating, Lambsquarters [6, 18] | Plant response rating, Ragweed [7, 17] | Plant response rating, Ragweed [7, 19] | Plant response rating, Soybean (soybean (Glycine max); [18]) | Plant response rating, Cocklebur [11, 19] | Plant response rating, Cocklebur [11, 20]
25: Plant response rating, Rice (rice (Oryza sativa); [15]) | Plant response rating, Kochia (kochia (Kochia scoparia); [19])
30: Plant response rating, Sedge, Umbrella [1, 13] | Plant response rating, Ducksalad [3, 14]
35: Plant response rating, Kochia (kochia (Kochia scoparia); [20])
0: Plant response rating, Ducksalad [3, 13] | Plant response rating, Oat, Wild (wild oat (Avena fatua); [17]) | Plant response rating, Oat, Wild (wild oat (Avena fatua); [21]) | Oat, Wild plant response rating (wild oat (Avena fatua); [22]) | Plant response rating, Soybean (soybean (Glycine max); [21]) | Plant response rating, Foxtail, Giant [9, 21] | Plant response rating, Corn (corn (Zea mays); [17]) | Plant response rating, Corn (corn (Zea mays); [21]) | Plant response rating, Corn (corn (Zea mays); [23]) | Corn plant response rating (corn (Zea mays); [22]) | Plant response rating, Johnsongrass [10, 21] | Plant response rating, Cocklebur [11, 21] | Plant response rating, Cocklebur [11, 23]
75: Plant response rating, Lambsquarters [6, 16] | Plant response rating, Foxtail, Giant [9, 17] | Plant response rating, Corn (corn (Zea mays); [16]) | Plant response rating, Johnsongrass [10, 16] | Plant response rating, Johnsongrass [10, 18] | Johnsongrass plant response rating [10, 22] | Plant response rating, Cocklebur [11, 17]
100: Plant response rating, Bermudagrass [4, 17] | Bermudagrass plant response rating [4, 22] | Plant response rating, Foxtail, Green [5, 17] | Plant response rating, Foxtail, Green [5, 20] | Plant response rating, Pigweed [8, 17] | Plant response rating, Pigweed [8, 20] | Plant response rating, Pigweed [8, 21] | Pigweed plant response rating [8, 22]
40: Plant response rating, Sedge, Umbrella [1, 14] | Plant response rating, Barnyardgrass [2, 15]
50: Plant response rating, Foxtail, Green [5, 21] | Plant response rating, Foxtail, Green [5, 23] | Foxtail, Giant plant response rating [9, 22]
98: Plant response rating, Bermudagrass [4, 20] | Plant response rating, Bermudagrass [4, 23] | Foxtail, Green plant response rating [5, 22] | Plant response rating, Lambsquarters [6, 17] | Plant response rating, Lambsquarters [6, 20] | Plant response rating, Lambsquarters [6, 23] | Lambsquarters plant response rating [6, 22] | Plant response rating, Pigweed [8, 19] | Plant response rating, Johnsongrass [10, 20]
45: Plant response rating, Foxtail, Giant [9, 23]
10: Plant response rating, Rice (rice (Oryza sativa); [13])
60: Plant response rating, Flood, Rice (rice (Oryza sativa); [12]) | Plant response rating, Oat, Wild (wild oat (Avena fatua); [16]) | Plant response rating, Oat, Wild (wild oat (Avena fatua); [18]) | Plant response rating, Oat, Wild (wild oat (Avena fatua); [19])
15: Plant response rating, Barnyardgrass [2, 13] | Plant response rating, Rice (rice (Oryza sativa); [14])
80: Plant response rating, Bermudagrass [4, 16] | Plant response rating, Ragweed [7, 16] | Plant response rating, Ragweed [7, 18] | Ragweed plant response rating [7, 22] | Soybean plant response rating (soybean (Glycine max); [22]) | Plant response rating, Foxtail, Giant [9, 16] | Plant response rating, Foxtail, Giant [9, 18] | Plant response rating, Corn (corn (Zea mays); [18]) | Plant response rating, Corn (corn (Zea mays); [19]) | Plant response rating, Johnsongrass [10, 17]
